Source: patent US9526762B1, “Multidomain peptides for promoting angiogenesis” (WILLIAM MARSH RICE UNIVERSITY, priority 2013, dated 2016)

T1: MMP-2 (Homo sapiens, UniProt P08253)
T1 sequence (P08253 110-660): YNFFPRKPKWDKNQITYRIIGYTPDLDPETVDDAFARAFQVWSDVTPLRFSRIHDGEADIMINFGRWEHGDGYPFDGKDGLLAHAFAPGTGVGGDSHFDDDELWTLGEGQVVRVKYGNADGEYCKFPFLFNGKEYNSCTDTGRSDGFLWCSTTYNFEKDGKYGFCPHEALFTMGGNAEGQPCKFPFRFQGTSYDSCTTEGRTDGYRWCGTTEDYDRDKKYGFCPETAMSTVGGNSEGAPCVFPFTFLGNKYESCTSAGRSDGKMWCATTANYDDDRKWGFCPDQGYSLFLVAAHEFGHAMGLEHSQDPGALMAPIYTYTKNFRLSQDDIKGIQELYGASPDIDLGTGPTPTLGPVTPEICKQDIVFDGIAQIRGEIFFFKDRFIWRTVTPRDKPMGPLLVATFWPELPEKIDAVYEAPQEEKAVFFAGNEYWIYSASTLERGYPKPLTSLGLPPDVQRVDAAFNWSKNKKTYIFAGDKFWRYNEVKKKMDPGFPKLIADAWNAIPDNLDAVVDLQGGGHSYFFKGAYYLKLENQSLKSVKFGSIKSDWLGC

T2: angiogenic peptide SLanc: K-(SL)3(RG)(SL)3-K-G-KLTWQELYQLKYKGI
T2 chain: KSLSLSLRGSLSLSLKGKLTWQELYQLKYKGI

B1: MMP-2 (protein)
chain: T1 sequence (P08253 110-660)

Assays:
[1] = system: THP-1 cells; assay: Immunogenicity with THP-1 cells atop scaffolds (ELISA); format: cell-based; details: ELISA at 24 hr
Procedure: 200 μL gels were cast in 24 well plates. Rat tail tendon (RTT), Puramatrix™ (Pura) and Matrigel™ were used as gel controls, and TCP with macrophages differentiated to M1 (20 ng/mL IFN-γ+LPS) and M2 (20 ng/mL IL-4) phenotype were used as cell controls. THP-1 cells in suspension were suspended in media and incubated at a concentration of 1M cells/well atop scaffolds. Media aliquots were assayed for inflammatory (IL-1β, TNF-α), and anti-inflammatory (IL-10) at 24 hr using ELISA (Biolegend, Calif.).

[2] = system: Wistar rats; assay: Subcutaneous implants in rats, histologic and angiogenic evaluation; format: in vivo; details: rat
Procedure: Female Wisar rats (225-250 g, Charles River Labs, Wilmington, Mass.) were anesthetized using isofluorane (2% for induction and 1% for maintenance), dorsal aspect shaved and sterilely prepped. Hydrogel scaffolds of each SL, SLc, SLac, SLanc or controls: Pura, VEGF (1 μg/mL) were made were loaded in syringes with 22 gage needles. 200 μL subcutaneous injections were injected in 4 different 1.5 inch spaced randomized sites on the dorsal aspect, on either side between the lower thoracic and upper lumber vertebrae. At prescribed timepoints 3 day, 1 week, 2 weeks and […] rats were euthanized using an overdose of isoflurane, CO2 asphyxiation, and bilateral thoracic puncture. The dorsal skin was removed around the entire implant, washed with PBS, and fixed in neutral buffered formalin for 24 hr prior to processing.
Tissue was processed to paraffin blocks, sectioned at 7 μm, deparraffinized and stained for cellular infiltrate using H&E. Cellular infiltrate was determined using immunostaining Mural cell staining associated with angiogenesis was determined by staining for endothelial cells: goat anti-rat CD31+ (Santa Cruz Biotechnology), mouse anti-rat vWF (ABCam); smooth muscle cells: rabbit anti-rat α-SMA+ (Dako); pericytes: mouse anti-rat Nestin+ (Millipore); hematopoitic stem cells: mouse anti-rat CD45 (Santa Cruz Biotechnology), and nucleic DAPI counterstain. Secondary antibodies used were goat anti-rabbit AF 488, donkey anti-goat AF 488, anti-goat AF 488 (Life Technologies), donkey Streptavidin AF 647 (Life Technologies), goat anti-mouse AF 647 and donkey anti-rabbit AF 647. Angiogenesis was quantified by measuring the diameter of vessels (small axis for non-circular vessels), density of vessels (vessels per unit area), presence and thickness of vessel wall (graded from 1 to 3: 1—non-contiguous vessel wall, 2: contiguous thin vessel wall, 3: contiguous multicell thick vessel wall) (n=4 separate sections, n=4 samples).
In modeled diseases such as ligated femoral artery ischemic limb wounds or myocardial infarction several host tissue responses are activated. From secretion of mediators of inflammation such as MCP-1, IL-4, IL-10, SDF-1 and GCSF to growth factors such as VEGF, FGF and EGF extrinsic factors can drastically influence performance of novel materials. As such, prior to use in a disease model, evaluation of scaffolds without concomitant influence from native immune responses was critical. 200 μL subcutaneous implants were randomly made in the dorsal aspect of Wistar rats between the cervical and lumbar vertebrae and 1-2 cm lateral to the midline. 1 w % scaffolds were prepared aseptically by crosslinking 2 w % peptide with an equal volume of HBSS, and injected via 21 gage needle below the skin. At 3 day, 1 week, 2 week and 3 week timepoints, rats were euthanized and scaffolds with surrounding tissue and skin removed. Scaffolds were trimmed, fixed in formalin, embedded in paraffin, sectioned and (immuno-) stained. […] These scaffolds seemed to have completely diffused away or degraded 3 days post-implant. […] Development of blood vessels is dependent on the stimuli the host and scaffold provides. VEGF loaded scaffolds presented 100 ng of recombinant protein (13 nM) within scaffolds. […] These cells of immune, hematopeotic and mesenchymal origin provide a niche for reconstitution of scaffolds. Coupled with recruitment and growth of endothelial feeders from existing vessels, we posit that pericytic cells enhance stability of growing vessels in a paracrine fashion providing adequate support for generation of arterioles.

[3] = target: T1, MMP-2; assay: In vitro degradation of SLanc with MMP-2 (MALDI-MS); format: biochemical; details: in vitro incubation with MMP-2, MALDI-MS
Description: Chemical moieties introduced into the peptide sequence can tailor the host response to materials. In the design of SLanc, an MMP-2 cleavage sequence was introduced into the central peptide backbone. This sequence can be cleaved specifically with MMP-2, which is secreted by a host of infiltrating cells ranging from macrophages to fibroblasts. […] Additional functionality was afforded to SLanc to enhance angiogenesis by addition of QK derived from VEGF-165.

[4] = system: HUVEC; assay: Scratch wound healing assay; format: cell-based, human; details: 1 μM soluble peptide, low FBS (0.5%) media, 18 hr
Procedure: HUVEC were seeded in a 12-well plate (25,000 per well) and grown to confluence (n=6). A scratch wound was made in each of the wells with a 1 mL pipet tip. Cell surfaces were then washed with HBSS. Cell culture media with 0.5% FBS and 1 μM peptides (SLanc, SLac, PBS) alone was added on top of cells, n=6. Surfaces were imaged immediately. Cells were then incubated at 37° C. for 18 h imaged again in the same location. NIH Image J was used to measure the infiltration distance by migrating HUVEC.

[5] = system: human mesenchymal stem cells (hMSCs); assay: hMSC adhesion on hydrogel scaffolds; format: cell-based; details: 2000 hMSC per gel, 5 days at 37° C., nuclei counted
Procedure: SLanc, SLac, SL, and RTT hydrogels (50 μL) were cast in 16-well chamber slides (n=6). hMSC (2000 on each gel) were seeded, and compared to TCP surfaces. Cells were incubated for 5 days at 37° C. Actin filaments were stained with Alexafluor Phalloidin 488 (Life Technologies) and DAPI (Life Technologies). Cell morphology was noted and nuclei counted to quantify proliferation.

[6] = target: T2, angiogenic peptide SLanc: …

| Molecule | IL-1β secretion by THP-1 cells [1] | TNF-α secretion by THP-1 cells [1] | cellular infiltration of scaffold (H&E) ([2]; 200 μL subcutaneous injection, 1 w % scaffold) | fibrous capsule around implant ([2]; subcutaneous implant) | perfusion of neovessels (CD45 / vWF immunostaining) ([2]; subcutaneous implant) | time to development of angiogenic networks ([2]; subcutaneous implant) [days] | time to resorption of vessels and implants ([2]; subcutaneous implant) [weeks] | time to stable vessels ([2]; subcutaneous implant) [days] | vessels in scaffold at 3 day ([2]; subcutaneous implant, 3 day) | vessel maturity by immunostaining at 7 day and 2 weeks ([2]; subcutaneous implant, 7 day and 2 weeks) | hemangiomas or hemorrhaging ([2]; subcutaneous implant, up to 3 weeks) | macro-scale vessels visible upon explant ([2]; subcutaneous implant, compared to SLc or SLc+VEGF scaffolds) | degradation by MMP-2 [3] | migration of HUVEC into scratch wound [4] | hMSC adhesion to scaffold [5] | enzymatic cleavage of the peptide, MALDI mass spectrometry of fragments [6] |
| --- | --- | --- | --- | --- | --- | --- | --- | --- | --- | --- | --- | --- | --- | --- | --- | --- |
| Ac-KSLSLSLRGSLSLSLKGKLTWQELYQLKYKGI-NH2 [SLanc, K-(SL)3(RG)(SL)3-K-G-KLTWQELYQLKYKGI] | significantly lower than LPS activated cells, with levels similar to commercially available scaffolds (Puramatrix™ and Matrigel™) | significantly lower than LPS activated cells, with levels similar to commercially available scaffolds (Puramatrix™ and Matrigel™) | significantly greater cellular population | lack of a fibrous capsule | CD45+ hematopoietic cells were noted within vWF+ vessels suggesting patent perfused mature neovessels | ≤ 3 | ≤ 3 | ≤ 7 | small nascent vessels | mature Nestin+, α-SMA+, and CD31+ cells | without development of hemangiomas or hemorrhaging | visible macro-scale vessels | yields a variety of peptide fragments around the cleavage site | significantly higher proliferation than TCP | increased adhesion to SLanc over non-functionalized scaffolds | – |
| K-(SL)3-(RG)-(SL)3-K-(GRGDS) (KSLSLSLRGSLSLSLKGRGDS) [SLac, adhesion and cleavage peptide] | – | – | – | – | – | – | – | – | – | – | – | – | – | significantly higher proliferation than TCP | – | – |
| B1 | – | – | – | – | – | – | – | – | – | – | – | – | – | – | – | In vitro demonstration of physiological degradation of SLanc with the addition of MMP-2, yields a variety of peptide fragments around the cleavage site |
